This is an account of results in patent US6143325A, “Nefazodone dosage form” (priority 1999, dated 2000).

Structures can show the parent of a compound that is named as a salt.

The test system of series [1] is cytochrome P450 (CPY) 3A4. To be noted: cited from earlier work.
The conditions of series [2]: cited from earlier work.
The next series relates to CYP2D6. As to conditions: cited from earlier work.
The conditions of series [3]: clinically effective doses of up to 450 mg three times a day; cited from earlier work.
For series [4] the following is noted: USP criteria; cited from earlier work.
A further series deals with monoamine oxidase. As to conditions: cited from earlier work.
The test system of series [5] is serotonin 5-HT2 receptors. To be noted: in vivo; cited from earlier work.
The conditions of series [6]: cited from earlier work. This is another data set of the same source.
The conditions of series [7]: relative to tricyclic antidepressants; cited from earlier work.
Series [8] can be described thus: nefazodone and metabolite pharmacokinetics in human volunteers: ER v. IR. To be noted: plasma, po.
The subject of the next series is serotonin re-uptake. As to conditions: in vivo; cited from earlier work.
Another series concerns rats. To be noted: mediated through 5-HT2C or 5HT2B receptors; cited from earlier work.
The subject of a further series is rodents. To be noted: in vivo; cited from earlier work.
The test system of another series is humans. As to conditions: in vivo; cited from earlier work.

Take `O=c1[nH]n(CCCN2CCN(c3cccc(Cl)c3)CC2)c(=O)n1CCOc1ccccc1` [Dione]: the “metabolism by CYP3A4” value in series [1] is reported as “responsible for the further metabolism”.
In general, Tmax refers to the time from dosing to the highest level. For `CCc1nn(CCCN2CCN(c3cccc(Cl)c3)CC2)c(=O)n1CCOc1ccccc1` [Nefazodone, 2-[3-[4-(3-chlorophenyl)-1-piperazinyl]-propyl-]5-ethyl-2,4-dihydro-4-(2-phenoxy-ethyl)-3H-1,2,4-triazol-3-one hydrochloride], in series [1], the “inhibition of CYP3A4” value is reported as “inhibits cytochrome P450 (CPY) 3A4” and the “metabolism by CYP3A4” value is listed as “metabolized by”. The “dissociation constant (pKa)” value in series [2] was 6.4. Besides, the “inhibition of CYP2D6” value with CYP2D6 is reported as “weak inhibitor of CYP2D6”. Also, the tolerability result in series [3] is on record as “well-tolerated”. Besides, in series [4], the solubility in water result is “sparingly soluble”. Moreover, in the series on monoamine oxidase, the monoamine oxidase inhibition entry was “does not inhibit monoamine oxidase”. Also, in series [5], the “effect on serotonin 5-HT2 receptors” value was “blocks serotonin 5-HT2 receptors”. Further, the first-pass metabolism entry in series [6] (in vivo) is on record as “significant first-pass metabolism”. Further, the “kinetics (dose proportionality)” value in [6] (plasma concentrations v. dose) is listed as “non-linear kinetics”. Moreover, in series [7], the “anticholinergic, antihistamine, alpha-adrenergic and sedative activity” value is “decreased anticholinergic, antihistamine, alpha-adrenergic and sedative activity”. Also, in series [8] (100 mg), the time to peak (Tmax) came out at 2 h. Further, the Tmax in [8] (200 mg) came to 5 h. Further, in the series with serotonin re-uptake, the serotonin re-uptake inhibition entry is given as “reversibly inhibits serotonin re-uptake”.
As for `CC(O)c1nn(CCCN2CCN(c3cccc(Cl)c3)CC2)c(=O)n1CCOc1ccccc1` (centres unmarked) [hydroxy-nef, hydroxynefazodone], the “metabolism by CYP3A4” value in series [1] is “responsible for the further metabolism”.
As to `Clc1cccc(N2CCNCC2)c1` [mCPP, m-chlorophenylpiperazine], the “metabolism by CYP2D6” value with CYP2D6 is “responsible for the metabolism of mCPP”. In addition, in the series with rats, the hypoglycemic effect entry is recorded as “dose-dependent hypoglycemic effect”. Moreover, the effects in rodents entry with rodents is “anxiogenic-like properties, causes hypoactivity, hypophagia, oral dyskinesia, penile erection and hyperthermia”. Moreover, in the series with humans, the effects in humans entry was “increase anxiety in humans (and can cause panic attacks), may precipitate migraine attacks in those susceptible to such attacks, can disrupt sleep, be hypophagic in humans also and may have psychotogenic effects”.
